What was measured:
Oxytocin receptor = target: T1, Oxytocin receptor (Homo sapiens, UniProt P30559); assay: Antagonist activity at human oxytocin receptor expressed in CHO cells by beta lactamase assay; format: functional, cell-based
T1 sequence (P30559 whole entry): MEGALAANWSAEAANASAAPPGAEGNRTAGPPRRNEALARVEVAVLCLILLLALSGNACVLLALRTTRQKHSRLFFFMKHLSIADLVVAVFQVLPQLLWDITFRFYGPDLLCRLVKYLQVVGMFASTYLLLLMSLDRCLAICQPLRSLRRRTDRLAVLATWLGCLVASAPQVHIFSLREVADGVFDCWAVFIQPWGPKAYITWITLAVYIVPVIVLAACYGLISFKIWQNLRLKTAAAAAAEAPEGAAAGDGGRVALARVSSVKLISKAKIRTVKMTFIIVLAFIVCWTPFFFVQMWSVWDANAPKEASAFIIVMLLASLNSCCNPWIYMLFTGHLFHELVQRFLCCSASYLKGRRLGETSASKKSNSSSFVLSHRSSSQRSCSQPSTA

Vasopressin V1a receptor = Vasopressin V1a receptor (Homo sapiens, UniProt P37288); assay: Antagonist activity at human vasopressin V1A receptor; format: functional
Vasopressin V1a receptor, sequence (P37288 whole entry): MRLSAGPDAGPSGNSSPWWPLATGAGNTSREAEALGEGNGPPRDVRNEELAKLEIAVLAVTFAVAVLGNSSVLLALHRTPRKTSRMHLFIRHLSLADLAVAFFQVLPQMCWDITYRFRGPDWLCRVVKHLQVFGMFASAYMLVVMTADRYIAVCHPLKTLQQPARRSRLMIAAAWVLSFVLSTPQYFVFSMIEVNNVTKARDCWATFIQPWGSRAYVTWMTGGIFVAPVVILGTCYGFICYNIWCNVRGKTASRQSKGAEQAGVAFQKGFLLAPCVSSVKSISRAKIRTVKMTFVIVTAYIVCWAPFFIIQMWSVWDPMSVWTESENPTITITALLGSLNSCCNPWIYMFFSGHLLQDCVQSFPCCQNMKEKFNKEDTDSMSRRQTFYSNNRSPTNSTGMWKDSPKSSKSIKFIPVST

[1] = target: T2, Vasopressin V1b receptor (Homo sapiens) (UniProt P47901); assay: Antagonist activity at human vasopressin V1B receptor at 10 uM; format: functional; set-up: scale not given: the % may be the effect or the level left
T2 sequence (whole entry): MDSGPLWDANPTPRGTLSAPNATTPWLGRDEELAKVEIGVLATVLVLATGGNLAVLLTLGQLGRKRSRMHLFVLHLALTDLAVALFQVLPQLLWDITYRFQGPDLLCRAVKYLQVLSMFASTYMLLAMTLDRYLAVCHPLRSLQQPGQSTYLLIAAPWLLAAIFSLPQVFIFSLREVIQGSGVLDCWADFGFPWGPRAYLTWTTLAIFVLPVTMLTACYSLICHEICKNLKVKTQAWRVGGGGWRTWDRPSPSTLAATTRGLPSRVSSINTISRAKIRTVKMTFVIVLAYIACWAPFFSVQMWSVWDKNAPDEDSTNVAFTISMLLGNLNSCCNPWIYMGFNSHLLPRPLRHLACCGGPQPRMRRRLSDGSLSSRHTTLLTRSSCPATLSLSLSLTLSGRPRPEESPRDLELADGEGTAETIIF

[2] = target: Vasopressin V2 receptor (Homo sapiens) (UniProt P30518); assay: Antagonist activity at human vasopressin V2 receptor at 10 uM; format: functional; set-up: scale not given: the % may be the effect or the level left
Vasopressin V2 receptor (Homo sapiens), sequence (P30518 whole entry): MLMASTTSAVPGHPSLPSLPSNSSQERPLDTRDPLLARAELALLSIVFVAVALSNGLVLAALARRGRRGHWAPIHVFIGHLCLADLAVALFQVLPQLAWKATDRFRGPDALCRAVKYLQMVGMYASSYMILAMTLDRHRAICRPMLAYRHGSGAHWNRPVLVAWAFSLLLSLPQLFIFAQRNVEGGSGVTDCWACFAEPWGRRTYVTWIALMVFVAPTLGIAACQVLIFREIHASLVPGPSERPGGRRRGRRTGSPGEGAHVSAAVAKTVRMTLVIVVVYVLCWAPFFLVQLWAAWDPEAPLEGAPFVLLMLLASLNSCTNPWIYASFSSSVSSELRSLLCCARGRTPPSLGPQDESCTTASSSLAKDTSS

SMILES	Ki (Oxytocin receptor)	Ki (Vasopressin V1a receptor)	Activity [1]	Activity [2]
COc1ccc(-n2c(C)nnc2N2CC(Oc3cccc(F)c3C)C2)cn1	19.7 nM	> 4200 nM		
COc1ccc(N(C)C(=O)N2CC(Oc3ccc(F)cc3Cl)C2)cn1	67.2 nM	779 nM		
COc1ccc(-n2c(C)nnc2N2CC(Oc3cc(F)cc(F)c3C)C2)cn1	41.4 nM	> 4200 nM		
CCN(C(=O)N1CC(Oc2cc(F)cc(F)c2C)C1)c1ccc(OC)nc1	36.7 nM			
CCN(C(=O)N1CC(Oc2ccc(F)cc2Cl)C1)c1ccc(OC)nc1	48.4 nM			
CCN(C(=O)N1CC(Oc2ccc(F)cc2C)C1)c1ccc(OC)nc1	43 nM			

Next, values leading:

Ki (Oxytocin receptor)	Ki (Vasopressin V1a receptor)	Activity [1]	Activity [2]	SMILES
237 nM	> 4200 nM			COc1ccc(N(C)C(=O)N2CC(Oc3cc(F)cc(F)c3C)C2)cn1
159 nM	> 4200 nM			COc1ccc(N(C)C(=O)N2CC(Oc3cccc(F)c3C)C2)cn1
112 nM	1300 nM			COc1ccc(N(C)C(=O)N2CC(Oc3ccc(F)cc3C)C2)cn1
13.9 nM	> 4200 nM	< 10%	< 10%	CCN(C(=O)N1CC(Oc2cccc(F)c2C)C1)c1ccc(OC)nc1

From ChEMBL document CHEMBL1155414, “Identification of a urea bioisostere of a triazole oxytocin antagonist” (Bioorg Med Chem Lett, 2010)
